In the experiment the target is Cyclin-dependent kinase 2/cyclin E1 (Homo sapiens, UniProt P24941). In words: Inhibition of N-terminal GST-tagged wild-type full-length human CDK2 (1 to 298 residues)/FLAG-tagged human Cyclin E1 (1 to 410 residues) extracted from baculovirus infected Sf21 cells using ULight-labeled eIF4E-binding protein-1 as substrate incubated for 60 mins in the presence of ATP by HTRF assay. On the technique in general: In TR-FRET formats the signal depends on donor and acceptor labels being close together.

Each structure is given as a SMILES string. pIC50: −log10 of the molar value. Bounds are passed on as bounds.

Take `C[C@@H](Oc1c(-c2cn[nH]c2)ccn2nc(NC3CCOCC3)nc12)C(F)F`: the negative logarithm of the IC50 (pIC50) is not below 8.00.

Turning to `C[C@@H](Oc1c(-c2cn[nH]c2)ccn2nc(NC3CCOCC3)nc12)C(F)(F)F`, the pIC50 was not below 8.00.

As for `CC(C)Oc1c(-c2cn[nH]c2)ccn2nc(NC3CCOCC3)nc12`, the pIC50 is not below 8.00.

As for `CC(C)Oc1c(-c2cn[nH]c2)ncn2nc(NC3CCOCC3)nc12`, the pIC50 was not below 8.00.

For the molecule `C[C@@H](Oc1c(-c2cn[nH]c2)ncn2nc(NC3CCOCC3)nc12)C(F)F`, the pIC50 is not below 8.00.

On to `C[C@@H](Oc1c(-c2cn[nH]c2)ncn2nc(NC3CCOCC3)nc12)C(F)(F)F`, for which the pIC50 is not below 8.00.

For orientation: pIC50 means −log10 of the IC50, conventionally taken in molar units.

Source of the values: ChEMBL document CHEMBL6103604, “Novel Bicyclic Amines as CDK2 Inhibitors for Treating Metastatic Breast Cancer or Metastatic Lung Cancer” (ACS Med Chem Lett, 2025).
